Assays:
SH-SY5Y = test: Cytotoxicity against human SHSY5Y cells at 10 uM after 48 hrs; format: cell-based
Cholinesterase = Cholinesterase (Homo sapiens, UniProt P06276)
Description: Inhibition of human serum BChE

Acetylcholinesterase [1] = biological target: T1, Acetylcholinesterase (Homo sapiens, UniProt P22303)
Description: Inhibition of human brain AchE

[2] = biological target: Cholinesterases; ACHE & BCHE (Homo sapiens) (UniProt P06276+P22303); test: Selectivity for human BChE over human AChE; format: protein assay
Acetylcholinesterase [3] = biological target: T1, Acetylcholinesterase; test: Inhibition of human AChE-induced beta amyloid peptide(1-40) aggregation at 100 uM by thioflavin T-based fluorometric assay; format: functional
Acetylcholinesterase [4] = biological target: T1, Acetylcholinesterase; remark: listed apart in the source
Acetylcholinesterase [5] = biological target: T2, Acetylcholinesterase (Bos taurus, UniProt P23795); test: biochemical
T2 sequence (P23795 whole entry): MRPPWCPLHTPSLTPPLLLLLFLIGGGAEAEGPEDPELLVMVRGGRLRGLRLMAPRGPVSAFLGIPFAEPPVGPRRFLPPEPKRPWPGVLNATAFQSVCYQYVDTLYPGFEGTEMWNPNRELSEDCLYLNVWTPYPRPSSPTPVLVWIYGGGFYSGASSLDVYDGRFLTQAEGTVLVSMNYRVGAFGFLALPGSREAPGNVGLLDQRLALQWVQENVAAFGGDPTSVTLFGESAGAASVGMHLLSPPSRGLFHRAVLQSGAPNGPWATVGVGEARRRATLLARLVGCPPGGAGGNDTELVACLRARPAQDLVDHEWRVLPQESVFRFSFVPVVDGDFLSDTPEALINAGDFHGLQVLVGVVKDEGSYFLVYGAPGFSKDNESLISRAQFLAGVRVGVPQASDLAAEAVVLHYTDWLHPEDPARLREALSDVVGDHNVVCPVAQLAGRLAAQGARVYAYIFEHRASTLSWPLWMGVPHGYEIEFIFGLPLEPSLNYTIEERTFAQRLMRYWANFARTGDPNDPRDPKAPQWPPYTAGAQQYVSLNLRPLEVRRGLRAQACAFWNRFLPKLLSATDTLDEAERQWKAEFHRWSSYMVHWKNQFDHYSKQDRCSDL
Description: Inhibition of AchE in bovine erythrocytes

Cholinesterases; ACHE & BCHE (Homo sapiens), sequence (P06276 whole entry, looked up): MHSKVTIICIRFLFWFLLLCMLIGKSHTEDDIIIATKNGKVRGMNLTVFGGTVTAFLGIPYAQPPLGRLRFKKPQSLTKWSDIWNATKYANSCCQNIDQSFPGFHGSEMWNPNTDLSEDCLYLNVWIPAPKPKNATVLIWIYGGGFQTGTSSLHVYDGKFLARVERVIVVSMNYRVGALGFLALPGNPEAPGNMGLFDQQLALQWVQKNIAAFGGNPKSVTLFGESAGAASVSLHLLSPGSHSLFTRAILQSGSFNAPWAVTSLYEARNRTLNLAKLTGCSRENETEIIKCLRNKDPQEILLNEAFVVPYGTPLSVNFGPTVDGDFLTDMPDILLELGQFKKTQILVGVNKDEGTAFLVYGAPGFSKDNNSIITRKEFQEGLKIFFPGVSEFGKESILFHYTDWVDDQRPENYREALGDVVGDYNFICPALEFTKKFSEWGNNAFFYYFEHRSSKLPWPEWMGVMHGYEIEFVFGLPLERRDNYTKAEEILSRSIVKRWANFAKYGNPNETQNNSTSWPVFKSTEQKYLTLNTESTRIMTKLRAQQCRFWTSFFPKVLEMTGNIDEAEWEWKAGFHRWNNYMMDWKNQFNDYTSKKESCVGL
Cholinesterases; ACHE & BCHE (Homo sapiens), sequence (P22303 whole entry, looked up): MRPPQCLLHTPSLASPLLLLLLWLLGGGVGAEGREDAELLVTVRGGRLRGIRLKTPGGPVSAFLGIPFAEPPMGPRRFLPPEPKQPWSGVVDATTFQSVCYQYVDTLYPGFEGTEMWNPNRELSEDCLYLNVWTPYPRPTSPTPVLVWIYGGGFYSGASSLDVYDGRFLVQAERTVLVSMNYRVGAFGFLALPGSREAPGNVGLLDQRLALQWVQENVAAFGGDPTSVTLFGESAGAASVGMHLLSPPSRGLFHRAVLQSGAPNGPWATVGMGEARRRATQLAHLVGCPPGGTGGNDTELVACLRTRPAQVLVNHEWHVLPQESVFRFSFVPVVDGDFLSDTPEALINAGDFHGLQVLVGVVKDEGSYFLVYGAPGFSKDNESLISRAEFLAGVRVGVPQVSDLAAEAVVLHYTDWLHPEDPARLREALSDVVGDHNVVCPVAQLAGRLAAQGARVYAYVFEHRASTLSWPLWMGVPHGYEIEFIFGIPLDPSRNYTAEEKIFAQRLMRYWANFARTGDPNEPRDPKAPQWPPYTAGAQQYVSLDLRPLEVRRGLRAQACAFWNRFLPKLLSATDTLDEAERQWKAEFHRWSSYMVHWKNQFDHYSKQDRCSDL
Cholinesterase, sequence (P06276 whole entry): as the sequence (P06276 whole entry, looked up) above
T1 sequence (P22303 whole entry): as the sequence (P22303 whole entry, looked up) above

SMILES | Activity (SH-SY5Y) | IC50 (Cholinesterase) [nM] | IC50 (Acetylcholinesterase [1]) [nM] | Ki (Acetylcholinesterase [1]) [nM] | Ratio IC50 [2] | inhibition (Acetylcholinesterase [3]) [%] | IC50 (Acetylcholinesterase [4]) [nM] | IC50 (Acetylcholinesterase [5]) [nM]
CN(CCCNC(=O)CCc1c[nH]c2ccccc12)CCCNc1c2c(nc3cc(Cl)ccc13)CCCC2 | Active | 21.4 |  |  |  |  |  | 
O=C(CCc1c[nH]c2ccccc12)NCCCCCNc1c2c(nc3cc(Cl)ccc13)CCCC2 |  | 16 |  |  |  |  |  | 
O=C(CCc1c[nH]c2ccccc12)NCCCCCCNc1c2c(nc3cc(Cl)ccc13)CCCC2 |  |  | 0.07 | 0.014 | 0.02 | 98 | 2000 | 
O=C(CCCc1c[nH]c2ccccc12)NCCCCCCNc1c2c(nc3cc(Cl)ccc13)CCCC2 |  |  |  |  |  |  |  | 0.5
N#Cc1ccc2[nH]cc(CCC(=O)NCCCCCCNc3c4c(nc5cc(Cl)ccc35)CCCC4)c2c1 |  | 11.7 |  |  |  |  |  | 0.7
O=C(CCc1c[nH]c2ccccc12)NCCCCCCCCNc1c2c(nc3cc(Cl)ccc13)CCCC2 | Active |  |  |  |  |  |  | 
O=C(/C=C/c1c[nH]c2ccccc12)NCCCCCCNc1c2c(nc3cc(Cl)ccc13)CCCC2 |  | 77 |  |  |  |  |  | 18
O=C(CCOc1c[nH]c2ccccc12)NCCCCCCNc1c2c(nc3cc(Cl)ccc13)CCCC2 |  | 60 |  |  |  |  |  | 0.7
O=C(CCc1c[nH]c2ccccc12)NCCCCCCCCCc1c2c(nc3cc(Cl)ccc13)CCCC2 |  | 9.6 |  |  |  |  |  | 
O=C(CCc1c[nH]c2ccccc12)NCCCCCCCNc1c2c(nc3cc(Cl)ccc13)CCCC2 | Active |  | 0.02 | 0.009 | 0.22 | 96 | 6000 | 
O=C(Cc1c[nH]c2ccccc12)NCCCCCCCNc1c2c(nc3cc(Cl)ccc13)CCCC2 |  | 11.7 | 0.12 | 0.015 | 0.01 | 84 | 7000 | 0.2
O=C(Cc1c[nH]c2ccc(Br)cc12)NCCCCCCCNc1c2c(nc3cc(Cl)ccc13)CCCC2 |  |  | 0.23 | 0.02 | 0.14 | 82 | 15000 | 0.6
O=C(CCOc1c[nH]c2ccccc12)NCCCCCCCNc1c2c(nc3cc(Cl)ccc13)CCCC2 |  | 59 |  |  |  |  |  | 3
O=C(CCOc1c[nH]c2ccccc12)NCCCCCNc1c2c(nc3cc(Cl)ccc13)CCCC2 |  | 136 |  |  |  |  |  | 1.5
O=C(CCCc1c[nH]c2ccccc12)NCCCCCNc1c2c(nc3cc(Cl)ccc13)CCCC2 |  | 3.2 | 0.13 | 0.0017 | 0.04 | 99 | 2000 | 0.3
O=C(CCc1c[nH]c2ccccc12)NCCCCCCCCCCNc1c2c(nc3ccccc13)CCCC2 |  | 54 |  |  |  |  |  | 21.9
Cn1cc(C(=O)NCCCCCCCNc2c3c(nc4cc(Cl)ccc24)CCCC3)c2ccccc21 |  | 206 |  |  |  |  |  | 10.9
